Key:
Aedes aegypti [1] = assay: In vivo K&D assay on treated skin of human study participants
Excerpt: For the K&D in vivo test [Klun J A, Debboun M. A new module for quantitative evaluation of controlling efficacy using human subjects. J Med Entomol. 2000; 37:177-81.], 3 study participants, 2 females and 1 male, showing low or no skin reactions against mosquito bites were recruited at the Swiss Tropical and Public Health Institute (Swiss TPH). […] The study was approved by the Ethics Commission of Northwest and Central Switzerland (Study no. PB_2017-00436-220/11) and all study participants signed an informed consent form. To avoid unwanted bias the participants were asked to avoid alcohol and products such as perfume, eau de cologne and lotions for at least 12 hours before and during the experiments. During the experiments the participants were also asked to avoid rubbing, touching or wetting the arthropod controlling compound-treated area as well as any activity that might lead to increased perspiration.
In the in vivo assay, a template was used to delineate 4 cm×5 cm areas on the skin that correspond to each of the six cell openings (3 cm×4 cm) on the bottom of the K&D module. Five areas were treated with the different tested stimuli. The module, with five host-seeking, 5- to 10-day-old mosquitoes in each cell, was then positioned over the treated skin area. The number of mosquitoes blood feeding within a 2-minute exposure was recorded. This procedure was repeated until six replicate exposures and observations (i.e. 30 mosquitoes) were made for the three study participants.

Aedes aegypti [2] = assay: In vitro Warm Body assay, mosquitoes landing on treated warm body; type: in vivo; conditions: for % of mosquitoes' repellency: normalised to landing with 100% ethanol
Procedure, shortened: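 Adapted Warm Body assay with host-seeking, non-blood-fed, sugar-fed A. aegypti Rockefeller females aged 5–10 days (10–12 days in one set); cages held 30 (or 25) females at 150 lux. Landings were counted automatically. Doses in ethanol were 0.0016%, 0.04% and 1% in triplicate, or a single replicate across 0.0016–1%.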

[3] = Aedes aegypti, read-out: decrease of landings

Cc1ccc2c(c1)CC(C)(CO)C2 (stereo not drawn) [ingredient #2, (2,5-dimethyl-2,3-dihydro-1H-inden-2yl)methanol]
% repulsion (Aedes aegypti [1]; 0.02% in ethanol on human skin): 23.3% | % repulsion (Aedes aegypti [1]; 0.1% in ethanol on human skin): 27.8% | % repulsion (Aedes aegypti [1]; 0.5% in ethanol on human skin): 54.4% | % repulsion (Aedes aegypti [1]; 2.5% in ethanol on human skin): 82.2% | % repulsion (Aedes aegypti [1]; 10% in ethanol on human skin): 93.3% | concentration from which a significant repellent effect is shown (Aedes aegypti [1]; on its own, in ethanol): ≥ 0.5% | % of mosquitoes' repellency (Aedes aegypti [2]; 0.00032% concentration): 18% | % of mosquitoes' repellency (Aedes aegypti [2]; 0.00071% concentration): 46% | % of mosquitoes' repellency (Aedes aegypti [2]; 0.0016% concentration): 14% | number of mosquitoes landed on the Warm Body (Aedes aegypti [2]; 0.0016% in ethanol (Table 7, one replicate)): 68 | % of mosquitoes' repellency (Aedes aegypti [2]; 0.0036% concentration): 46% | % of mosquitoes' repellency (Aedes aegypti [2]; 0.0053% concentration): 0% | % of mosquitoes' repellency (Aedes aegypti [2]; 0.0080% concentration): 26% | number of mosquitoes landed on the Warm Body (Aedes aegypti [2]; 0.008% in ethanol (Table 7, one replicate)): 61 | % of mosquitoes' repellency (Aedes aegypti [2]; 0.018% concentration): 26% | % of mosquitoes' repellency (Aedes aegypti [2]; 0.040% concentration): 61% | number of mosquitoes landed on the Warm Body (Aedes aegypti [2]; 0.04% in ethanol (Table 7, one replicate)): 22 | % of mosquitoes' repellency (Aedes aegypti [2]; 0.089% concentration): 60% | % of mosquitoes' repellency (Aedes aegypti [2]; 0.20% concentration): 80% | number of mosquitoes landed on the Warm Body (Aedes aegypti [2]; 0.2% in ethanol (Table 7, one replicate)): 9 | number of mosquitoes landed on the Warm Body (Aedes aegypti [2]; 0.447% in ethanol (Table 7, one replicate)): 3 | % of mosquitoes' repellency (Aedes aegypti [2]; 0.45% concentration): 93% | % of mosquitoes' repellency (Aedes aegypti [2]; 1% concentration): 91% | number of mosquitoes landed on the Warm Body (Aedes aegypti [2]; 1% in ethanol (Table 7, one replicate)): 8 | pest or weed control at 0.0016 % (Aedes aegypti [2]; [3]): 4 to 29% | pest or weed control at 0.04 % (Aedes aegypti [2]; [3]): ~70% | repulsion (in words) (Aedes aegypti [2]; concentrations lower than 0.04%): only low repulsion
